Results as given in US4814340A, “1,4-diaryl alkane derivatives having insecticidal and acaricidal activity” (priority 1982, dated 1989).
Where two headings read alike, the source gives them in different places.

How the values were obtained:
[1] = tested on: green rice leafhopper (female adults); assay: Test 2 (Effect on Green Rice Leafhopper); format: in vivo; conditions: Nephotettix cincticeps
Description: (§1) Compounds (a) through (g) described below were tested as comparative compounds in the same manner as the compounds of the present invention. All the tests were doubly carried out. Namely, each result was expressed by an average value of two data.
Four or five seedlings of paddy rice with three leaves were bundled, and thereon the same dilution of the emulsifiable concentrate as used in Test 1 was sprayed in an amount of 3 ml. The bundle was dried and covered with a metal net cylinder, and 10 female adults of green rice leafhopper were set free in the cylinder. 48 hours after, the number of killed adults was counted.

[2] = tested on: German cockroach (female adults); assay: Test 3 (Effect on German Cockroach); format: in vivo, Blatella germanica (German cockroach); conditions: Blattella germanica
Description: as §1
One ml of an acetone solution of a test compound of a specified concentration was poured in a high Petri dish having a diameter of 9 cm and a height of 9 cm. The Petri dish was allowed to stand, and thereby the acetone was evaporated. The upper part of the inner wall of the Petri dish was treated with butter to prevent the adults of German cockroach from escaping from the Petri dish. 10 female adults of German cockroach were set free in each Petri dish. 48 hours after, the number of killed adults was counted.

[3] = tested on: common cutworm (third-instar larvae); assay: Test 1 (Effect on Common Cutworm); format: in vivo; conditions: Spodoptera litura
Description: as §1
The emulsifiable concentrate of the test compound, prepared according to the method described in Formulation Example 1, was diluted with water to a specified concentration. Sweet potato leaves were sufficiently immersed in the dilution. The sweet potato leaves were dried and placed in a plastic cup having a diameter of 10 cm, and 10 third-instar larvae of common cutworm were set free in each cup. 48 hours after, the numbers of killed and living larvae were counted and the mortality was calculated.

[4] = tested on: two-spotted spider mite (adults); assay: Test 4 (Effect on Two-Spotted Spider Mite); format: in vivo; conditions: Tetranychus urticae
Description: as §1
A kidney bean leaf disc (20 mm in diameter) perforated with a cork borer was placed on water-impregnated absorbent cotton, and thereon 20 adults of two-spotted spider mite were set free, and the resulting set was allowed to stand around the clock. The same dilution of the emulsifiable concentrate of a test compound having a concentration of 200 ppm as used in Test 1 and Test 2, was applied by an applicator having a diameter of 20 cm and a height of 60 cm in an amount of 3 ml. 24 hours after, the number of killed adults was counted.

yearling carps = assay: Test 5 (Fish Toxicity); format: in vivo, carp
Description: as §1
A water tank having a width of 60 cm, a length of 30 cm and a height of 40 cm was filled with water, and 10 yearling carps having a body length of about 5 cm were set free in the tank and adapted to the environment in the tank. An acetone solution of a test compound was applied into water so as to become a concentration of 1 or 0.1 ppm in water by adding said acetone solution at a rate of one part by volume per 100 parts by volume of water. 48 hours after, the number of killed and living carps was counted and the effect of a test compound on carps was examined.

[5] = 20 ppm, 48 hours, female adults, read-out: Mortality (%)
[6] = 100 ppm, 48 hours, female adults, read-out: Mortality (%)
[7] = 1 mg/m^2, 48 hours, female adults, read-out: Mortality (%)
[8] = 5 mg/m^2, 48 hours, female adults, read-out: Mortality (%)
[9] = 20 ppm, 48 hours, third-instar larvae, read-out: Mortality (%)
[10] = 100 ppm, 48 hours, third-instar larvae, read-out: Mortality (%)
[11] = 200 ppm, 24 hours, adults, read-out: Mortality (%)

| SMILES | mortality at 20 ppm [1, 5] [%] | mortality at 100 ppm [1, 6] [%] | mortality at 1 mg/m2 [2, 7] [%] | mortality at 5 mg/m2 [2, 8] [%] | mortality at 20 ppm [3, 9] [%] | mortality at 100 ppm [3, 10] [%] | mortality at 200 ppm [4, 11] [%] | other results |
| --- | --- | --- | --- | --- | --- | --- | --- | --- |
| CC(C)(CCCc1ccc(F)c(Oc2ccccc2)c1)c1ccc(OC(F)(F)C(F)F)cc1 [Compound 66] | 100 | 100 | 65 | 100 | 100 | 100 | 100 |  |
| CC(C)c1ccc(C(C)(C)CCCc2ccc(F)c(Oc3ccccc3)c2)cc1 [Compound 56] | 100 | 100 | 40 | 100 |  |  | 100 |  |
| CC(C)(CCCc1cccc(Oc2ccccc2)c1)c1ccc2c(c1)OCO2 [Compound 4, 1-(3-phenoxyphenyl)-4-(3,4-methylenedioxyphenyl)-4-methylpentane] |  |  | 40 | 100 | 100 | 100 |  | Mortality(%) 48 Hours After (yearling carps; 0.1 ppm in water): 0%; Mortality(%) 48 Hours After (yearling carps; 1 ppm in water): 0% |
| CCOc1ccc(C2(CCCc3cccc(Oc4ccccc4)c3)CCC2)cc1 [Compound 31, 1-(3-Phenoxyphenyl)-3-[1-(4-ethoxyphenyl)cyclobutyl]propane] | 100 | 100 | 100 | 100 |  |  |  |  |
| CC(C)Oc1ccc(C(C)(C)CCCc2cccc(Oc3ccccc3)c2)cc1 [Compound 9, 1-(3-phenoxyphenyl)-4-(4-isopropoxyphenyl)-4-methylpentane] | 100 | 100 |  |  | 100 | 100 | 100 |  |
| CCOP(=S)(OCC)Oc1ccc(=O)n(-c2ccccc2)n1 [(b), 0,0-diethyl-0-(3-oxo-2-phenyl-2H-pyridazin-6-yl)-phosphorothioate, reference compound] |  |  | 0 | 10 |  |  |  | mortality at 20 ppm ([1]; 48 h): 90%; mortality at 100 ppm ([1]; 48 h): 100% |
| CCOc1ccc(C(C)(C)CCCc2cccc(Oc3ccccc3)n2)cc1 [Compound 19] |  |  |  |  | 70 | 100 | 43 |  |
| CC(C)(CCCc1ccc(F)c(Oc2ccccc2)c1)c1ccccc1 [Compound 27] | 100 | 100 |  |  | 100 | 100 |  | mortality at 1 mg/m2 ([2]; 48 h): 100%; mortality at 5 mg/m2 ([2]; 48 h): 100% |
| CCOc1ccc(C(C)(C)CCCc2ccc(F)c(Oc3ccccc3)c2)cc1Cl [Compound 57] | 100 | 100 | 100 | 100 | 100 | 100 | 91 | Mortality(%) 48 Hours After (yearling carps; 0.1 ppm in water): 0%; Mortality(%) 48 Hours After (yearling carps; 1 ppm in water): 0% |
| CC(C)(CCC(C#N)c1cccc(Oc2ccccc2)c1)c1ccc(Cl)cc1 (stereo not drawn) [Compound 54, 1-(3-Phenoxyphenyl)-1-cyano-4-(4-chlorophenyl)-4-methylpentane] | 50 | 90 |  |  | 45 | 90 | 100 |  |
| COP(=O)(OC)OC=C(Cl)Cl [(a), 0,0-dimethyl-0-(2,2-dichlorovinyl)phosphate, reference compound] |  |  |  |  |  |  |  | mortality at 20 ppm ([3]; 48 h): 0%; mortality at 100 ppm ([3]; 48 h): 60%; mortality at 200 ppm ([4]; 24 h): 33% |
| CC(C)(CCCc1ccc(F)c(Oc2ccc(F)cc2)c1)c1ccc(Cl)cc1 [Compound 53] | 100 | 100 | 80 | 100 |  |  | 100 |  |
| CC(C)(CCCc1cccc(Oc2ccccn2)c1)c1ccc(Cl)cc1 [Compound 43] | 75 | 100 |  |  |  |  | 60 |  |
| Cc1ccc(C(C)(C)CCCc2cccc(Oc3ccccc3)c2)cc1 [Compound 1, 1-(3-phenoxyphenyl)-4-(4-methylphenyl)-4-methylpentane] |  |  | 80 | 100 | 100 | 100 |  | Mortality(%) 48 Hours After (yearling carps; 0.1 ppm in water): 0%; Mortality(%) 48 Hours After (yearling carps; 1 ppm in water): 0% |
| CCOc1ccc(C(C)(C)CCCc2ccc(F)c(Oc3ccc(F)cc3)c2)cc1 [Compound 55] | 100 | 100 |  |  | 100 | 100 |  | mortality at 1 mg/m2 ([2]; 48 h): 100%; mortality at 5 mg/m2 ([2]; 48 h): 100%; Mortality(%) 48 Hours After (yearling carps; 0.1 ppm in water): 0%; Mortality(%) 48 Hours After (yearling carps; 1 ppm in water): 0% |
| CCOP(=S)(OCC)Oc1cc(C)nc(C(C)C)n1 [(c), Diazinon, reference compound] |  |  |  |  |  |  |  | mortality at 20 ppm ([1]; 48 h): 10%; mortality at 100 ppm ([1]; 48 h): 80%; mortality at 1 mg/m2 ([2]; 48 h): 0%; mortality at 5 mg/m2 ([2]; 48 h): 80% |
| CCc1ccc(C(C)(C)CCCc2ccc(F)c(Oc3ccccc3)c2)cc1 [Compound 52] | 100 | 100 | 70 | 100 | 100 | 100 | 100 |  |
| CCOc1ccc(C(C)(C)CCCc2cccc(Oc3ccc(F)cc3)n2)cc1 [Compound 40] | 60 | 100 |  |  |  |  | 70 |  |
| CC(C)(CCCc1ccc(F)c(Oc2ccccc2)c1)c1ccc(OC(F)F)cc1 [Compound 10, 1-(3-phenoxy-4-fluorophenyl)-4-(4-difluoromethoxyphenyl)-4-methylpentane] | 100 | 100 | 100 | 100 | 100 | 100 |  | Mortality(%) 48 Hours After (yearling carps; 0.1 ppm in water): 5%; Mortality(%) 48 Hours After (yearling carps; 1 ppm in water): 30% |
| COCc1ccc(C(C)(C)CCCc2cccc(Oc3ccccc3)c2)cc1 [Compound 61] | 100 | 100 |  |  |  |  | 93 |  |
| CC(C)(CCCc1cccc(Oc2ccccc2)c1)c1ccc(OCCF)cc1 [Compound 60] | 100 | 100 |  |  | 90 | 100 | 90 |  |
| COc1ccc(C(C)(C)CCCc2ccc(F)c(Oc3ccccc3)c2)cc1 [Compound 6, 1-(3-phenoxy-4-fluorophenyl)-4-(4-methoxyphenyl)-4-methylpentane] | 100 | 100 | 100 | 100 | 100 | 100 |  | Mortality(%) 48 Hours After (yearling carps; 0.1 ppm in water): 0%; Mortality(%) 48 Hours After (yearling carps; 1 ppm in water): 0% |
| OC(c1ccc(Cl)cc1)(c1ccc(Cl)cc1)C(Cl)(Cl)Cl [(e), Kelthane, reference compound] |  |  |  |  |  |  |  | mortality at 200 ppm ([4]; 24 h): 100% |
| CC(C)(CCCc1cccc(Oc2ccccc2)c1)c1ccc(OC(F)(F)C(F)F)cc1 [Compound 65] | 100 | 100 | 30 | 95 | 100 | 100 |  |  |
| Cc1ccc(C(C)(C)CCCc2ccc(F)c(Oc3ccccc3)c2)cc1 [Compound 29] |  |  | 100 | 100 | 100 | 100 |  |  |
| CCOC(=O)c1ccc(C(C)(C)CCCc2cccc(Oc3ccccc3)c2)cc1 [Compound 64] |  |  |  |  | 40 | 90 | 70 |  |
| CC(C)(C)c1ccc(C(C)(C)CCCc2ccc(F)c(Oc3ccccc3)c2)cc1 [Compound 44] |  |  |  |  | 40 | 90 | 85 |  |
| CC(C)(CCCc1cccc(Oc2ccccc2)c1)c1ccc(OC(F)(F)CCl)cc1 [Compound 35] |  |  |  |  | 100 | 100 | 85 | mortality at 1 mg/m2 ([2]; 48 h): 70%; mortality at 5 mg/m2 ([2]; 48 h): 100%; Mortality(%) 48 Hours After (yearling carps; 0.1 ppm in water): 0%; Mortality(%) 48 Hours After (yearling carps; 1 ppm in water): 0% |
